Values of other authors in PMC12122562, “Phase 1 studies of the indenoisoquinolines LMP776 and LMP744 in patients with solid tumors and lymphomas” (Cancer Chemotherapy and Pharmacology, 2025).
Read-outs that look alike come from different tables or passages of the source.

What was measured:
[1] = system: PTEN-null glioblastoma cells; design: method as in PMID 37706203; settings: combined with the PARP inhibitor niraparib; cited from earlier work
[2] = system: naturally occurring lymphomas; design: method as in PMID 30061364; settings: canines with lymphomas; cited from earlier work
advanced solid tumors = system: advanced solid tumors; design: method as in PMID 27169793; settings: cited from earlier work
[3] = system: patients with advanced solid tumors; settings: cited from earlier work

In the case of `COc1cc2c3c(n(CCCN4CCOCC4)c(=O)c2cc1OC)-c1cc2c(cc1C3=O)OCO2` [LMP400], the “Cell killing activity in combination” value [1] is listed as “synergistic cell killing activity”, the Responders [2] is listed as 9 of 27 and the Response rate [2] is listed as 33.3%. For the same compound, the Best response (advanced solid tumors) was “stable disease”, the “Nausea, prevalence” value [3] was 5% and the “Alanine aminotransferase increased, patients” value ([3]; grade 2, n=21, ref 1 (suppl.)) was 3. The “Anemia, patients” value ([3]; grade 2, n=21, ref 1 (suppl.)) was 8, the “Aspartate aminotransferase increased, patients” value ([3]; grade 2, n=21, ref 1 (suppl.)) was 2 and the “Blood bilirubin increased, patients” value ([3]; grade 2, n=21, ref 1 (suppl.)) was 2. The “Diarrhea, patients” value ([3]; grade 2, n=21, ref 1 (suppl.)) was 1, the “Dyspepsia, patients” value ([3]; grade 2, n=21, ref 1 (suppl.)) was 1 and the “Fatigue, patients” value ([3]; grade 2, n=21, ref 1 (suppl.)) was 3. The “Hyperkalemia, patients” value ([3]; grade 2, n=21, ref 1 (suppl.)) was 1, the “Hypophosphatemia, patients” value ([3]; grade 2, n=21, ref 1 (suppl.)) was 1 and the “Lethargy, patients” value ([3]; grade 2, n=21, ref 1 (suppl.)) was 1. The “Lymphocyte count decreased, patients” value ([3]; grade 2, n=21, ref 1 (suppl.)) was 4, the “Nausea, patients” value ([3]; grade 2, n=21, ref 1 (suppl.)) was 1 and the “Neutropenia, patients” value ([3]; grade 2, n=21, ref 1 (suppl.)) was 1. The “Weight loss, patients” value ([3]; grade 2, n=21, ref 1 (suppl.)) was 1, the “White blood cell count decreased, patients” value ([3]; grade 2, n=21, ref 1 (suppl.)) was 1 and the “Anemia, patients” value ([3]; grade 3, n=21, ref 1 (suppl.)) was 2. For the same compound, the “Fatigue, patients” value ([3]; grade 3, n=21, ref 1 (suppl.)) was 1, the “Febrile Neutropenia, patients” value ([3]; grade 3, n=21, ref 1 (suppl.)) was 2 and the “Lymphocyte count decreased, patients” value ([3]; grade 3, n=21, ref 1 (suppl.)) was 3. For the same compound, the “White blood cell count decreased, patients” value ([3]; grade 3, n=21, ref 1 (suppl.)) was 1, the “Neutropenia, patients” value ([3]; grade 4, n=21, ref 1 (suppl.)) was 3 and the “Platelet count decreased, patients” value ([3]; grade 4, n=21, ref 1 (suppl.)) was 3. The “White blood cell count decreased, patients” value ([3]; grade 4, n=21, ref 1 (suppl.)) was 2.
